We go through four compounds from patent EP0486045A2, “S(+)-Phenyl-alkanoic acids and alpha-amino acid containing complexes” (MEDICE Chem.-Pharm. Fabrik Pütter GmbH & Co. KG, priority 1990, dated 1992).

Where “and” joins values, the source holds several entries; their conditions need not be identical. Equal values may be shown once. Read-outs that look alike come from different tables or passages of the source. Bounds are passed on as bounds.

One series can be described thus: clinical. The settings on record: human, in vivo, po, 150 mg.
Series [1] is described as follows: Pharmacokinetic comparison after a single oral dose of 150 mg S-(+)-Ibuprofen, free acid tablet vs D-Lysinat (Tabelle 5). The settings on record: for Ae conj. I / Ae, free 1 / tlag: single oral dose 150 mg S-(+)-Ibuprofen, Mean ± SD.
For series [2] the following is noted: human, in vivo, po, 150 mg.
A short description of series [3]: Pharmacokinetics of S-(+)-Ibuprofen-D-Lysinat capsules (200 mg S-(+)-Ibuprofen, oral) in 24 subjects.
For the next series, the system named is primärer Dysmenorrhör. Description: Pharmacodynamics: pain intensity on a visual analogue scale (0 - 10), self-rated. It counts as in vivo, Probandinnen. From the text: In einer monozentrienden Studie wurde die Pharmakodynamik bei primärer Dysmenorrhör an 24 Probandinnen untersucht. Die Mittelwerte aller Probandinnen als Auswertung einer Schmerzintensitätsskala sind in Tabelle 4 sowie Fig. 4 graphisch dargestellt. Die Schmerzintensität wurde anhand der visuellen Analogskala (einer von 0 - 10 offenen Skala) von den Probandinnen im Rahmen einer Selbstbeurteilung angegeben.
Wie aus Fig. 4 zu ersehen, betrug die mittlere Schmerzintensität zum Zeitpunkt Null 4,7, die analgetische Wirksamkeit setzte innerhalb von 5 Minuten ein und verminderte sich innerhalb der ersten 45 Minuten auf einen Wert von im Mittel 1,65. Die maximale analgetische Wirkung wurde nach 2 Stunden mit einem Wert von 0,36 erreicht. Anschließend stieg die Schmerzintensität bis auf einen Wert von 0,83 nach 6 Stunden wieder langsam an. Die Fig. 4 zeigt die Schmerzintensitätskurve der Probandinnen.

Series [4] in a line: Adverse drug effects, laboratory parameters and medical follow-up in the study. It counts as in vivo, Probandinnen. Conditions: up to 3 x daily 200 mg on 3 days. An excerpt:
Unerwünschte Arzneimittelwirkungen traten bei keiner Teilnehmerin an der Studie auf.

As for `CC(C)Cc1ccc([C@H](C)C(=O)O)cc1` [S-(+)-Ibuprofen, freie Säure, S-(+)-Ibuprofen], in “clinical”, the concentration peaked (Cmax) at 10900 ng/mL. Also, in series [1] (human, in vivo, po, 150 mg), the AUC (as a rule, the area under the concentration-time curve, a measure of exposure) is 44500 ng·h/mL and the tmax came out at 2 h. In series [1], the “Ae conj. I” value is 8,0 ± 2,9; the “Ae, free 1” value is reported as 0,6 ± 0,2 % of dose; the tlag is recorded as 0,5 ± 0,1 h.

Regarding `NCCCC[C@H](N)C(=O)O` [Lysin], the pKa (usually the pH at which an ionisable group is half protonated) in the series “physchem” was found to be 10.5.

Regarding `CC(C)Cc1ccc([C@H](C)C(=O)O)cc1.NCCCC[C@@H](N)C(=O)O` [S-(+)-Ibuprofen-D-Lysinat], the “Ae conj. I” value in series [1] is reported as 9,3 ± 5,4. The “Ae, free 1” value in series [1] is listed as 0,6 ± 0,5 % of dose. In addition, the tlag in series [1] is 0,1 ± 0,02 h. In addition, the Cmax (usually the highest concentration seen after dosing) in series [2] is recorded as 23,0 ± 5,2 µg/ml. In addition, in series [3] (group A (n 6), mean x̄, capsule single dose, 720 min), the “AUC (Trapez)” value was 69,55 mg/lx12h. Further, the tmax in series [3] (mean of all subjects, 200 mg capsule oral) was 33 Minuten and 33,59 Minuten. Also, in series [3] (mean of all subjects, trapezoidal rule, 200 mg capsule oral, 720 min), the exposure (AUC) is listed as 56,45 mg/1 x 12 h. The “Verzögerungszeit (lag-Time) der Resorption” value in series [3] (mean, 200 mg capsule oral) is 2,33 Minuten. The “mittlere Schmerzintensität” value in the series on primärer Dysmenorrhör (Zeitpunkt Null (baseline), scale 0 - 10, mean of 24 subjects) is reported as 4,7; in the series on primärer Dysmenorrhör (nach 2 Stunden (maximal analgesic effect), scale 0 - 10) it was 0,36; in the series on primärer Dysmenorrhör (nach 6 Stunden, scale 0 - 10) it was 0,83; in the series with primärer Dysmenorrhör (within the first 45 Minuten, scale 0 - 10), 1,65. Besides, the “Einsetzen der analgetischen Wirksamkeit” value in the series on primärer Dysmenorrhör (onset of analgesia) is reported as not above 5 Minuten. In series [4] (single or repeated intake), the “unerwünschte Arzneimittelwirkungen” value is “zu keinen unerwünschten Arzneimittelwirkungen geführt hat mit Ausnahme der bei einer Probandin aufgetretenen pseudoallergischen Reaktion”. Further, in series [4], the “laborchemische Parameter und ärztliche Nachuntersuchung” value was “ohne pathologischen Befund”.

Consider `N=C(N)NCCC[C@H](N)C(=O)O` [Arginin], for which, in the series “physchem”, the pKa was approximately 12.5.
